Experimental data as given in PubChem BioAssay AID1963979 (Molecular Pharmacology Branch, DTP, NCI, 2024).

Test system: 361931-004-R-J1-PDC multicell spheroid viability
Test: Anticancer human tumor 361931-004-R-J1-PDC patient-derived colon adenocarcinoma cell line growth inhibition [PI3K]
Details: for IC50: curve of first compound; for viability, T/C: stronger effect = lower value
Outline: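 Stroma-containing spheroids: tumor line, pooled-donor HUVEC, hMSC. Treatments: targeted agents with PI3K inhibitors. Dosing: clinically relevant, half-log spacing, 10 microM ceiling without known Cmax. Read-out: cell viability.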

[1] = second compound 0.0316 µM, first compound 0.0316 µM
[2] = second compound 0.0316 µM, first compound 0.1 µM
[3] = second compound 0.1 µM, first compound 0.0316 µM
[4] = second compound 0.1 µM, first compound 0.1 µM
[5] = second compound 0.316 µM, first compound 0.0316 µM
[6] = second compound 0.316 µM, first compound 0.1 µM
[7] = second compound 1 µM, first compound 0.0316 µM
[8] = second compound 1 µM, first compound 0.1 µM
[9] = second compound 3.16 µM, first compound 0.0316 µM
[10] = second compound 3.16 µM, first compound 0.1 µM
[11] = second compound 10 µM, first compound 0.0316 µM
[12] = second compound 10 µM, first compound 0.1 µM
[13] = second compound 0.0316 µM, first compound 0.316 µM
[14] = second compound 0.0316 µM, first compound 1 µM
[15] = second compound 0.0316 µM, first compound 3.16 µM
[16] = second compound 0.0316 µM, first compound 10 µM
[17] = second compound 0.1 µM, first compound 0.316 µM
[18] = second compound 0.1 µM, first compound 1 µM
[19] = second compound 0.1 µM, first compound 3.16 µM
[20] = second compound 0.1 µM, first compound 10 µM
[21] = second compound 0.316 µM, first compound 0.316 µM
[22] = second compound 0.316 µM, first compound 1 µM
[23] = second compound 0.316 µM, first compound 3.16 µM
[24] = second compound 0.316 µM, first compound 10 µM
[25] = second compound 1 µM, first compound 0.316 µM
[26] = second compound 1 µM, first compound 1 µM
[27] = second compound 1 µM, first compound 3.16 µM
[28] = second compound 1 µM, first compound 10 µM
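Note: spheroids exposed to agents for seven days before readout.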

CC(=O)c1c(C)c2cnc(Nc3ccc(N4CCNCC4)cn3)nc2n(C2CCCC2)c1=O + CC(Nc1ncnc2nc[nH]c12)c1cc2cccc(Cl)c2c(=O)n1-c1ccccc1
IC50 (second compound 0.0316 µM): > 0.1 µM
IC50 (second compound 0.1 µM): > 0.1 µM
IC50 (second compound 0.316 µM): > 0.1 µM
IC50 (second compound 1 µM): > 0.1 µM
IC50 (second compound 3.16 µM): > 0.1 µM
IC50 (second compound 10 µM): > 0.1 µM
viability, T/C (second compound 0.0316 µM, first compound 0.000316 µM): 98.3%
viability, T/C (second compound 0.0316 µM, first compound 0.001 µM): 103%
viability, T/C (second compound 0.0316 µM, first compound 0.00316 µM): 97.5%
viability, T/C (second compound 0.0316 µM, first compound 0.01 µM): 97.2%
viability, T/C [1]: 102%
viability, T/C [2]: 93.2%
viability, T/C (second compound 0.1 µM, first compound 0.000316 µM): 103%
viability, T/C (second compound 0.1 µM, first compound 0.001 µM): 103%
viability, T/C (second compound 0.1 µM, first compound 0.00316 µM): 98.4%
viability, T/C (second compound 0.1 µM, first compound 0.01 µM): 104%
viability, T/C [3]: 99.5%
viability, T/C [4]: 98.4%
viability, T/C (second compound 0.316 µM, first compound 0.000316 µM): 108%
viability, T/C (second compound 0.316 µM, first compound 0.001 µM): 97.7%
viability, T/C (second compound 0.316 µM, first compound 0.00316 µM): 105%
viability, T/C (second compound 0.316 µM, first compound 0.01 µM): 97.9%
viability, T/C [5]: 103%
viability, T/C [6]: 97.5%
viability, T/C (second compound 1 µM, first compound 0.000316 µM): 101%
viability, T/C (second compound 1 µM, first compound 0.001 µM): 100%
viability, T/C (second compound 1 µM, first compound 0.00316 µM): 101%
viability, T/C (second compound 1 µM, first compound 0.01 µM): 105%
viability, T/C [7]: 108%
viability, T/C [8]: 89%
viability, T/C (second compound 3.16 µM, first compound 0.000316 µM): 96.2%
viability, T/C (second compound 3.16 µM, first compound 0.001 µM): 100%
viability, T/C (second compound 3.16 µM, first compound 0.00316 µM): 97.2%
viability, T/C (second compound 3.16 µM, first compound 0.01 µM): 93.7%
viability, T/C [9]: 100%
viability, T/C [10]: 81.3%
viability, T/C (second compound 10 µM, first compound 0.000316 µM): 92.7%
viability, T/C (second compound 10 µM, first compound 0.001 µM): 107%
viability, T/C (second compound 10 µM, first compound 0.00316 µM): 96.5%
viability, T/C (second compound 10 µM, first compound 0.01 µM): 94.1%
viability, T/C [11]: 101%
viability, T/C [12]: 80.5%

CC1(C)CCC(Nc2ncc(C(F)(F)F)c(-c3c[nH]c4c(P(C)(C)=O)c(C#N)ccc34)n2)CN1 (stereo unspecified) + CC(Nc1ccc2c(c1)OCCn1cc(N3C(=O)OCC3C(F)F)nc1-2)C(N)=O
IC50 (second compound 0.00316 µM): 4.25 µM
IC50 (second compound 0.01 µM): 4.37 µM
IC50 (second compound 0.0316 µM): 3.95 µM
IC50 (second compound 0.1 µM): 3.55 µM
IC50 (second compound 0.316 µM): 3.63 µM
IC50 (second compound 1 µM): 2.06 µM
viability, T/C (second compound 0.00316 µM, first compound 0.0316 µM): 72.1%
viability, T/C (second compound 0.00316 µM, first compound 0.1 µM): 78.7%
viability, T/C (second compound 0.00316 µM, first compound 0.316 µM): 76.4%
viability, T/C (second compound 0.00316 µM, first compound 1 µM): 72.6%
viability, T/C (second compound 0.00316 µM, first compound 3.16 µM): 66.1%
viability, T/C (second compound 0.00316 µM, first compound 10 µM): 3.82%
viability, T/C (second compound 0.01 µM, first compound 0.0316 µM): 84.2%
viability, T/C (second compound 0.01 µM, first compound 0.1 µM): 79.8%
viability, T/C (second compound 0.01 µM, first compound 0.316 µM): 75%
viability, T/C (second compound 0.01 µM, first compound 1 µM): 77.9%
viability, T/C (second compound 0.01 µM, first compound 3.16 µM): 67.8%
viability, T/C (second compound 0.01 µM, first compound 10 µM): 4.66%
viability, T/C [1]: 78.7%
viability, T/C [2]: 69.8%
viability, T/C [13]: 70.8%
viability, T/C [14]: 67.1%
viability, T/C [15]: 62.2%
viability, T/C [16]: 3.26%
viability, T/C [3]: 84.2%
viability, T/C [4]: 72.3%
viability, T/C [17]: 64.9%
viability, T/C [18]: 69.5%
viability, T/C [19]: 57%
viability, T/C [20]: 3.49%
viability, T/C [5]: 66.6%
viability, T/C [6]: 64.2%
viability, T/C [21]: 61.1%
viability, T/C [22]: 68.4%
viability, T/C [23]: 55.5%
viability, T/C [24]: 3.54%
viability, T/C [7]: 64.5%
viability, T/C [8]: 52.5%
viability, T/C [25]: 56.4%
viability, T/C [26]: 56.7%
viability, T/C [27]: 46.2%
viability, T/C [28]: 3.28%

CCCS(=O)(=O)Nc1ccc(F)c(C(=O)c2c[nH]c3ncc(-c4ccc(Cl)cc4)cc23)c1F + Cc1nc(NC(=O)N2CCCC2C(N)=O)sc1-c1ccnc(C(C)(C)C(F)(F)F)c1
IC50 (second compound 0.0316 µM): 4.92 µM
IC50 (second compound 0.1 µM): 5.57 µM
IC50 (second compound 0.316 µM): 5.01 µM
IC50 (second compound 1 µM): 3.5 µM
IC50 (second compound 3.16 µM): 2.09 µM
IC50 (second compound 10 µM): 0.624 µM
viability, T/C [1]: 96.2%
viability, T/C [2]: 101%
viability, T/C [13]: 88.6%
viability, T/C [14]: 99.7%
viability, T/C [15]: 78.4%
viability, T/C [16]: 4.57%
viability, T/C [3]: 107%
viability, T/C [4]: 86.1%
viability, T/C [17]: 87.2%
viability, T/C [18]: 91.6%
viability, T/C [19]: 95.5%
viability, T/C [20]: 4.97%
viability, T/C [5]: 94.3%
viability, T/C [6]: 92.1%
viability, T/C [21]: 80.7%
viability, T/C [22]: 86.9%
viability, T/C [23]: 80.5%
viability, T/C [24]: 4.14%
viability, T/C [7]: 89.2%
viability, T/C [8]: 88.8%
viability, T/C [25]: 75.9%
viability, T/C [26]: 73.3%
viability, T/C [27]: 57.3%
viability, T/C [28]: 3.96%
viability, T/C [9]: 77.1%
viability, T/C [10]: 75.2%
viability, T/C (second compound 3.16 µM, first compound 0.316 µM): 60.3%
viability, T/C (second compound 3.16 µM, first compound 1 µM): 59.1%
viability, T/C (second compound 3.16 µM, first compound 3.16 µM): 48.7%
viability, T/C (second compound 3.16 µM, first compound 10 µM): 3.13%
viability, T/C [11]: 70.6%
viability, T/C [12]: 68.6%
viability, T/C (second compound 10 µM, first compound 0.316 µM): 54.2%
viability, T/C (second compound 10 µM, first compound 1 µM): 43.5%
viability, T/C (second compound 10 µM, first compound 3.16 µM): 30.7%
viability, T/C (second compound 10 µM, first compound 10 µM): 1.96%
